From PubChem BioAssay (NCI) come the findings set out here.

“And” between values parts separate entries of the source, which are not always exact repeats. Identical values can stand only once.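 1) Cells in 96-well plates. 2) Compound, 48 h, 5 concentrations. 3) Linear interpolation between surrounding doses. 4) Unreached endpoint = highest concentration. The concentration for 50% growth inhibition is given as GI50. TGI denotes the concentration required for complete inhibition of growth.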

Holding throughout (test): DTP human tumour cell line panel, 48 h
Test [1] concerns HOP-92 NSCLC.
The subject of test [2] is A498 renal.
The test system of test [3] is SF-539 CNS.
The subject of test [4] is CCRF-CEM leukemia.
The test system of test [5] is UO-31 renal.
Test [6] concerns SK-OV-3 ovarian.
Test [7] has as its system SNB-19 CNS.
The subject of test [8] is SK-MEL-5 melanoma.
In test [9] the test system is A549 NSCLC.
The test system of test [10] is MALME-3M melanoma.

Regarding `COC(=O)C1=CN(CC2=CC(=O)C(C)=CC2=O)C=C(C(=O)OC)C1c1ccccc1OC`, the GI50 (commonly the concentration that inhibits growth by half) was 9.31 µM in [1]; 31.4 µM in test [2]; 21.2 µM in [3]; 5.48 µM in [4]; 16.4 µM in test [5]; more than 100 µM in test [6]. Also, the GI50 was more than 54.9 µM in test [7], 14.2 µM in test [8], 29.3 µM in test [9] and 14 µM in test [10]. The TGI (usually the concentration giving total growth inhibition) is 21.9 µM in [1]; more than 87.9 µM in test [2]; 60.3 µM in test [3]; 14.1 µM in [4]; 31.2 µM in [5]; more than 100 µM in test [6]. Besides, the TGI was more than 100 µM in test [7], 30.4 µM in [8], more than 59.4 µM in [9] and 33.3 µM in test [10].

On to `CC(C)=CCC1=C(O)c2ccccc2C(=O)C1=O`, for which the TGI in test [1] was more than 100 µM; in test [2] it was more than 100 µM; in [3] it was more than 100 µM; in test [4], > 100 µM and 18.5 µM; in test [5], more than 100 µM; in test [6] it was more than 100 µM. In addition, the TGI in test [7] was more than 100 µM; in test [8] it was 27 µM and 28 µM; in test [9], more than 100 µM; in [10], > 100 µM and 96.2 µM. Further, the GI50 in [5] was more than 100 µM; in test [6], > 100 µM and 47.7 µM; in test [7] it was > 100 µM and 16.4 µM and 29.4 µM; in test [8], 11.2 µM; in test [9], > 100 µM and 17.3 µM and 16.6 µM; in test [10], > 100 µM and 35.1 µM and 20.4 µM.

On to `CCN(Cc1c(F)cccc1OC)c1ccc(CO)c(Cl)c1`, for which the GI50 is 0.933 µM in test [1]; 0.0325 µM in [2]; 16.6 µM in test [3]; 20.9 µM in [4]; 14.9 µM in [5]; 3.65 µM in test [6]. Further, the GI50 is 24.2 µM in test [7], 11.9 µM in test [8], 2.35 µM in test [9] and 14 µM in [10]. In addition, the TGI was 10 µM in [1]; 0.106 µM in test [2]; 33.1 µM in [3]; more than 79.1 µM in test [4]; 48.8 µM in test [5]; 19.9 µM in test [6]. Moreover, the TGI was more than 100 µM in test [7], 24.2 µM in [8], 23.1 µM in [9] and 31.7 µM in test [10].

On to `NNc1ncnc2nc[nH]c12`, for which the GI50 in test [1] was 4 µM; in test [2], 5.41 µM; in [3] it was 21.2 µM; in test [4], 2.97 µM; in test [5] it was 2.48 µM; in test [6], 2.63 µM. Moreover, the GI50 in test [7] is 28.7 µM; in [8], 6.05 µM; in [9], 4.94 µM; in [10] it was 28.6 µM. In addition, the TGI is 55.4 µM in [1]; more than 100 µM in test [2]; more than 100 µM in test [3]; more than 100 µM in test [4]; more than 100 µM in [5]; 28.4 µM in test [6]. Moreover, the TGI was more than 100 µM in test [7], 36.4 µM in test [8], more than 38.6 µM in test [9] and more than 100 µM in test [10].

With `O=[N+]([O-])c1ccccc1N=Nc1c(O)[nH]c2c(Cl)cc(Cl)cc12`, the TGI in test [1] is more than 68.2 µM; in test [2], more than 100 µM; in test [3], 50.2 µM; in [4], more than 100 µM; in [5], more than 100 µM; in [6], more than 100 µM. The TGI in [7] was more than 100 µM; in test [8] it was more than 100 µM; in test [9], more than 100 µM; in test [10] it was more than 95.7 µM.

In the case of `CCn1cc(-c2ccnc3[nH]c(-c4cccc(CN(C)C)c4)cc23)c(-c2ccc(NC(=O)N(C)C)cc2)n1`, the GI50 in test [1] was 0.338 µM and 0.294 µM; in [2] it was 0.0673 µM and 0.519 µM; in [3] it was 0.418 µM and 1.38 µM; in test [4], less than 0.01 µM; in test [5], 2.22 µM and 1.99 µM; in test [6], 2.16 µM and 3.83 µM. The GI50 in test [7] was 10 µM and > 10 µM; in test [8], 6.55 µM; in test [9] it was 0.238 µM and 0.747 µM; in test [10], 12 µM and > 10 µM. Moreover, the TGI in test [1] was 5.2 µM and 2.99 µM; in test [2] it was 0.749 µM and 3.28 µM; in [3], 13.3 µM and > 10 µM; in test [4], 51.6 µM; in test [5], 9.98 µM and > 10 µM; in [6], 15.2 µM and > 10 µM. Also, the TGI in [7] is 45 µM and > 10 µM; in [8] it was 23.6 µM; in [9], 16.1 µM and > 10 µM; in test [10], 29.3 µM and > 10 µM.

Take `Cc1nc2sccn2c1-c1nc2sccn2c1/C=C1/C(=O)Nc2ccccc21`: the GI50 in [1] was 1.4 µM; in test [2] it was 2.04 µM; in [3], 3.72 µM; in [4] it was 3.79 µM; in test [5], 4.93 µM; in [6] it was 2.4 µM. Besides, the GI50 was 3.52 µM in test [7], 2.94 µM in [8], 3.95 µM in test [9] and 3.26 µM in test [10]. Also, the TGI in test [1] is 10.2 µM; in test [2] it was 8.26 µM; in test [3], 15.6 µM; in test [4], more than 100 µM; in test [5], 89.7 µM; in test [6], 15.4 µM. Also, the TGI was 23.9 µM in [7], 12.5 µM in [8], more than 100 µM in test [9] and 70.5 µM in test [10].

Consider `COc1ccc(CNc2c3ccccc3nc3ccccc23)cc1F`, for which the GI50 in test [1] is 1.96 µM; in test [2], 1.98 µM; in [3] it was 3.04 µM; in test [4], 3.81 µM; in [5], 1.49 µM; in test [6] it was 3.66 µM. Moreover, the GI50 in [7] is 3.41 µM; in test [8], 3.21 µM; in test [9], 3.55 µM; in test [10] it was 2.71 µM. Besides, the TGI in test [1] was determined as 7.61 µM; in [2] it was 5.99 µM; in test [3], 10.7 µM; in [4] it was 35.6 µM; in test [5] it was 6.15 µM; in [6] it was 16.3 µM. Moreover, the total growth inhibition concentration (TGI) in test [7] stood at 14.7 µM; in test [8], 10.6 µM; in test [9] it was 18 µM; in [10] it was 7.73 µM.
